{"source": "ChEMBL document CHEMBL5518165", "about": "“M335, a novel small-molecule STING agonist activates the immune response and exerts antitumor effects” (Eur J Med Chem, 2024)", "key": {"[1]": {"test": "Toxicity in […] mouse allografted with mouse CT26 cells assessed as change in body weight at 5 to 20 mg/kg, ip administered every 2 days", "assay_type": "organism-based", "conditions": "in vivo, 48 h, dose 5-20 mg/kg"}, "MC-38": {"test_system": "MC-38", "test": "Antitumor activity against mouse MC38 cells allografted in C57/BL6 mouse assessed as increase in CD45+ T cells in tumor tissue at 300 ug, IT administered every 2 days by flow cytometry analysis", "assay_type": "functional, cell-based", "conditions": "dose 300.0 µg"}, "[2]": {"biological_target": "Stimulator of interferon genes protein (Homo sapiens) (UniProt Q86WV6)", "sequence (Q86WV6 whole entry)": "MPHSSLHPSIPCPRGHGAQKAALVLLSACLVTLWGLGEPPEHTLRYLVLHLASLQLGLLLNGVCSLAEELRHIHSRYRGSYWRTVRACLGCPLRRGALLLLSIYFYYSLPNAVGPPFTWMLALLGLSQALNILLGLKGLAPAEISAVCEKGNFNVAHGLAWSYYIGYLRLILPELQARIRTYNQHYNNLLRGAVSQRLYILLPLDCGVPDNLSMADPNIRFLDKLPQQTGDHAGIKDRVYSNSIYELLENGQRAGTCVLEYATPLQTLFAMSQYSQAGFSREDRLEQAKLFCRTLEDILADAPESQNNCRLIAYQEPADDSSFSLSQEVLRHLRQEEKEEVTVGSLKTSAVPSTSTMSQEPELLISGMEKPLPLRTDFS", "test": "Agonist activity at STING in human THP-1 cells assessed as increase in LC3-II protein level incubated for 4 hrs by Western blotting analysis", "assay_type": "cell-based", "conditions": "filed as agonist, dose 5-40 µM"}, "CT26": {"test_system": "CT26", "test": "Antitumor activity against mouse CT26 cells […] mouse assessed as augmentation of CD3+ T cells in spleen at 20 mg/kg, ip administered every 2 days (reference value: 13.9%)", "assay_type": "functional"}, "[3]": {"test": "Toxicity in C57/BL6 mouse allografted with mouse B16-F10 cells assessed as change in body weight at 300 ug, IT administered every 2 days", "assay_type": "cell-based", "conditions": "in vivo, other, 48 h, dose 300 µg"}}, "note": "Calls of active or inactive are those of the source. No cut-off for these calls is given here."}
{"smiles": "CC(NCCC(c1ccccc1)c1ccccc1)c1ccccc1", "note": "(stereo not given) [FENDILINE]", "values": [{"measurement": "Activity", "setting": "[1]", "result": "Non-Toxic"}, {"measurement": "Activity", "setting": "MC-38", "result": "Active"}, {"measurement": "Activity", "setting": "[2]", "result": "Dose-Dependent Effect"}, {"measurement": "Activity", "setting": "CT26", "result": 41.4, "unit": "%"}, {"measurement": "Activity", "setting": "[3]", "result": "Non-Toxic"}]}
